# From patent US9532962B2, “Medium-chain length fatty acids and glycerides as nephroprotection agents” (priority 2007, dated 2017)
# “Also recorded” adds a separate entry of the source.
# Legend:
# [1] = test system: C57B1/6 mice; assay: Doxorubicin-induced nephrotoxicity model; assay type: in vivo; conditions: for histological kidney lesions score: 10 mg/kg i.v. at day 0; for histological kidney lesions score at the tubular level induced by doxorubicin / serum urea induced by doxorubicin: oral; for serum creatinine induced by doxorubicin: FIG. 9; for serum urea induced by doxorubicin: FIG. 10
# Protocol: C57B1/6 mice (6-10 week-old) were treated with sodium caprate prophylacticly from day −3 to day 10 or treated therapeutically from day 1 to 10. Nephrotoxicity was induced by an intravenous injection of 10 mg/kg of doxorubicin at day 0, Serum creatinine and urea were monitored at day 4, 7 and 11.
# [2] = test system: 5/6 nephrectomized (Nx) rats; assay: Heart protection (blood pressure) in 5/6 nephrectomized (Nx) rat model; assay type: in vivo; conditions: RTBP 2000, FIG. 8
# Protocol: (§1) Male 6 week-old Wistar rats were subjected to 5/6 nephrectomy or sham operations. Under ketamine anesthesia (60 to 100 mg/kg, i.p.), renal ablation was achieved by removing two-thirds of the left kidney followed by a right unilateral nephrectomy 7 days later. Sham rats underwent exposition of the kidneys and removal of the perirenal fat. Twenty-one days after the first operation, rats were assigned in the study if the serum creatinine was greater than 125 μmol/L indicating a dysfunction of the kidney. Animals that underwent the sham operation were given vehicle (saline) and were used as controls. Nx animals were divided in groups receiving the vehicle or sodium caprate. Saline or sodium caprate was given by gastric gavage once daily for 35 days. Serum creatinine was measured weekly in order to assess the severity of this end-stage renal disease model. Rats were sacrificed at day 63.
# [3] = test system: 5/6 nephrectomized (Nx) rats; assay: Kidney protection in 5/6 nephrectomized (Nx) rat model; assay type: in vivo, Wistar rats
# Protocol: as §1
# [4] = prophylactic (pre-doxorubicin) treatment
# [5] = therapeutic (post-doxorubicin) treatment
SMILES,"histological lesions in affected tubular regions (micrographs) ([1]; 10 mg/kg i.v. at day 0, 400×)","histological kidney lesions score ([1]; day 7 and 11, FIG. 11)","histological kidney lesions score ([1]; day 12, FIG. 13)","histological kidney lesions score at the tubular level induced by doxorubicin [1, 4]","serum creatinine induced by doxorubicin ([1]; prophylactic treatment day -3 to day 10, oral)","protection of kidney against doxorubicin toxicity, histological micrographs ([1]; prophylactic treatment, 400×)",serum urea induced by doxorubicin ([1]; prophylactic treatment),"histological kidney lesions score at the tubular level induced by doxorubicin [1, 5]","protection of kidney against doxorubicin toxicity, histological micrographs ([1]; therapeutic treatment)","serum creatinine induced by doxorubicin ([1]; therapeutic treatment day 1 to 10, oral)",serum urea induced by doxorubicin ([1]; therapeutic treatment),blood pressure [2],"kidney structure (density, glomerulus and tubular structure), histological micrographs ([3]; 40×, compared to control Nx rats, FIG. 6)","fibrosis and necrosis of the kidney tissue, histological micrographs ([3]; 400×, glomerulus level, FIG. 7)","serum creatinine ([3]; compared to control Nx rats, FIG. 5)","urine creatinine ([3]; day 21 to day 42, FIG. 4)","animals showing reduction of initial serum creatinine concentration ([3]; sodium caprate-treated Nx rats, FIG. 2) [%]"
"COc1cccc2c1C(=O)c1c(O)c3c(c(O)c1C2=O)C[C@@](O)(C(=O)CO)C[C@@H]3O[C@H]1C[C@H](N)[C@H](O)[C@H](C)O1 [doxorubicin, reference compound]","induces kidney cell apoptosis, fibrosis, sclerosis, and accumulation of proteins; also recorded: induces kidney cell apoptosis, fibrosis, sclerosis and accumulation of proteins",induces significant kidney lesions,induces significant kidney lesions,–,–,–,–,–,–,–,–,–,–,–,–,–,–
CCCCCCCCCC(=O)[O-].[Na+] [sodium caprate],–,–,–,reduce the kidney lesions,inhibits the increase of serum creatinine induced by doxorubicin to a similar level observed in control mice,protects kidney against doxorubicin toxicity,inhibits the increase of serum urea induced by doxorubicin to a similar level observed in control mice,reduce the kidney lesions,protects kidney against doxorubicin toxicity,reduces the serum creatinine level,inhibits the increase of serum urea induced by doxorubicin to a similar level observed in control mice,significant decrease,more conserved,reduces fibrosis and necrosis,significant (p=0.00006) decrease,significant (p=0.0002) increase,80
CCCCCCCCCC(=O)OCC(COC(=O)CCCCCCCCC)OC(=O)CCCCCCCCC [tricaprin],–,–,–,reduces the kidney lesions,–,protects kidney against doxorubicin toxicity,–,reduces the kidney lesions,protects kidney against doxorubicin toxicity,–,–,–,–,–,–,–,–
